Entries after “also recorded” stand apart in the source; their conditions may differ. Positions of bridges follow the written chain, without caps; N, C: chain ends. No end group written: not given here.

The values below come from paper PMC10762068, “Selective blockade of Cav1.2 (α1C) versus Cav1.3 (α1D) L-type calcium channels by the black mamba toxin calciseptine” (Nature Communications, 2024).

For one data set, the system named is Cav2.2 N-type. Briefly: Ca2+ current in HEK-293T cells expressing Cav2.2. The following applies: Cas 300 nM (n=11/N=3) and 1 µM (n=9/N=3); holding -90 mV, step +20 mV. The format is cell-based. The procedure:
HEK-293T (RRID:CVCL_2737) were obtained from the European Collection of Authenticated Cell Cultures (ECACC 96121229). The identity of HEK-293T has been confirmed by STR profiling and the cells have been eradicated from mycoplasma at ECACC. We routinely tested the cells for the absence of the mycoplasma contamination. Cells were cultivated at 37 °C in DMEM supplemented with GlutaMax, 10% fetal bovine serum and 1% penicillin/streptomycin (Invitrogen, Fisher Scientific, France). […]
Macroscopic currents in HEK-293T cells were recorded at room temperature using an Axopatch 200B or Multiclamp 700B patchclamp amplifier (Molecular Devices, Sunnyvale CA). […]
In all experiments of cellular electrophysiology, we employed synthetized analog of Cas, commercially available at Latoxan (ID: L8109). […] Its measured molecular mass (7036.26 Da average) was in accordance with the mass calculated from sequence data (7036.22 Da). […]
n=10/N=3) channels. Peak current density wa s recorded starting f rom a holding potential of -80mV using an activating voltage step at -30mV for Cav3.1, f ro m a holding potential of -90mV using an activating voltage step at +20mV for Cav2.2 and f rom a holding potential of -80mV using an activating voltage step at 0mV for Cav2.1. Exam ples of recorded traces are reported. […]

Data set [1] relates to isolated perfused hearts from mice. The data set is described as follows: Whole heart contractility and heart rate, Langendorff perfused mouse heart. To be noted: native Cas 100 nM, n=5. As to the method: Hearts were isolated from adult male mice anaesthetized with a first intraperitoneal injection of a mixture comprising ketamine (100 mg/kg) and xylazine (10 mg/kg), and a second one of sodium pentobarbital (45 mg/kg; Ceva Santé Animale, France). An intraperitoneal injection of heparin (7500IU/kg; Sanofi Aventis, France) was administered in order to avoid thrombus formation. A thoracotomy was performed and beating hearts were quickly removed and excised into ice-cold modified Krebs-Henseleit buffer containing (mM): NaCl 116; KCl 5; MgSO4 1.1; NaH2P0_4 0.35; NaHCO3 27; CaC1_2 1.8 and glucose 10. Buffer was gassed with 95% O2 and 5% CO2, giving a pH of 7.4 at 37 °C. Before use, the buffer was initially passed through a 0.2 µm filter (Sarstedt, USA). The aorta was cannulated under magnification and hearts were quickly mounted and perfused on the Langendorff perfusion system (Isolated heart system, EMKA Technologies, France). The coronary circulation was perfused at a constant pressure (70 mmHg) over a 1 to 4 ml/min flow range with modified Krebs-Henseleit buffer. During the stabilization phase, the heart was continuously perfused with modified Krebs-Henseleit and the electrocardiogram (ECG) was recorded through Ag/AgCl electrodes positioned on the right atrium and near the apex. Heart temperature was of 37 °C as continuously assessed by a probe positioned on the base of the heart and recorded by using a TH-5 monitoring thermometer (Phymep, USA). LV pressure was continuously measured by a home-made balloon inserted into the LV cavity by the left atrium and connected to the EMKA amplifier. After 20 min of stabilization (baseline), 100 nM Cas was perfused into the heart for 7 min. Then, the modified Krebs-Henseleit buffer was perfused for 1 h allowing to wash the effects of the Cas toxin. During the whole ex vivo protocol, the left ventricular pressure signals were continuously digitized at […] and recorded using an IOX data acquisition system (EMKA Technologies, France). Data were analyzed using ecgAUTOv3.3.3.12 (EMKA technologies) and MATLAB-R2021b (The MathWorks) custom-made script
In all experiments of cellular electrophysiology, we employed synthetized analog of Cas, commercially available at Latoxan (ID: L8109). The native peptide was purified from the venom of Dendroaspis polylepis purchased from Latoxan, as previoulsly described. The pure peptide was obtained after gel filtration, cation exchange and C18 reversed phase chromatography. Its measured molecular mass (7036.26 Da average) was in accordance with the mass calculated from sequence data (7036.22 Da).

“RICYIHKASLPRATKTCVENTCYKMFIRTQREYISERGCGCPTAMWPYQTECCKGDRCNK (disulfide 3-22, 17-39, 41-52, 53-58 (inferred)) [Cas, calciseptine]”: in the data set with Cav2.2 N-type, the “effect on Cav2.2 current” value was “failed to detect inhibitory effect; also recorded: had no effect”. Besides, the episodes of arrhythmia result in data set [1] is “did not observe episodes of arrhythmia”. Further, in data set [1] (perfused 7 min, 37 °C, before 51 ± 3 mmHg, mean ± SEM), the “left ventricular (LV) contraction amplitude” value is given as 9 ± 2 mmHg. In addition, the “contraction velocity (dP/dt max)” value in data set [1] (before 1.7 ± 0.2, mean ± SEM) was determined as 0.4 ± 0.1 mmHg/ms. In data set [1] (before 8 ± 2 mmHg, mean ± SEM), the baseline diastolic pressure came to 8 ± 3 mmHg. In data set [1] (before 10 ± 1 ms, not affected, mean ± SEM), the “relaxation time constant (Ƭ)” value was found to be 13 ± 2 ms. The “time-to-peak interval (time to maximal pressure)” value in data set [1] (before 54 ± 1 ms, not affected, mean ± SEM) is given as 50 ± 3 ms. In data set [1] (before 273 ± 17 ms, p > 0.05, mean ± SEM), the “averaged inter-beat (RR) interval” value is recorded as 271 ± 17 ms. The “relaxation velocity (dP/dt min)” value in data set [1] (before −1.2 ± 0.1, mean ± SEM) is given as −0.1 ± 0.1 mmHg/ms.
